Source: patent publication US9499550B2 (BRISTOL-MYERS SQUIBB COMPANY, priority 2012, dated 2016)
Like-named read-outs stand apart in the source and are kept apart here.

Experiments:
[1] = test system: HCV genotype 1a (H77 strain) replicon in HUH-7 cells; assay: HCV replicon luciferase reporter assay, genotype 1a; type: cell-based; conditions: Hepatitis C virus, Huh-7, 72 h, 3 days incubation
Summary of the method: (§1)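 Replicon inhibition for both genotypes was measured as Renilla luciferase signal (EnduRen, 7.5 μM final, 2 h) after 3-day, 37° C exposure of replicon-bearing HUH-7 cells in 4% FCS DMEM, 0.5% DMSO. The 1b construct carries S1179I; the 1a H77 construct carries P1496L and S2204I. Twenty-point, 3-fold dilutions were fitted four-parametrically for EC50, and CC50 was taken from multiplexed Cell Titer-Blue.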

[2] = test system: HCV genotype 1b (Con1) replicon in HUH-7 cells; assay: HCV replicon luciferase reporter assay, genotype 1b; type: cell-based; conditions: Hepatitis C virus, Huh-7, 72 h, 3 days incubation
Summary of the method: as §1

[3] = HCV genotype 1a replicon luciferase, read-out: LE_1a (EC50, range)
[4] = HCV genotype 1b replicon luciferase, read-out: LE_1b (EC50, range)
[5] = HCV genotype 1a replicon luciferase assay, range class, read-out: LE_1a (EC50, range)
[6] = HCV genotype 1b replicon luciferase assay, range class, read-out: LE_1b (EC50, range)

For `C[C@@H]1CC/C=C\[C@@H]2C[C@@]2(C(=O)NS(=O)(=O)C2(CF)CC2)NC(=O)[C@@H]2C[C@@H](Oc3ncc(N4CCOCC4)c4ccccc34)CN2C(=O)[C@@H](NC(=O)OC(C)(C)C(F)(F)F)[C@H](C)C1` [Compound 5449, 1,1,1-trifluoro-2-methylpropan-2-yl((2R,6S,7R,9R,13aS,14aR,16aS,Z)-14a-(((1-(fluoromethyl)cyclopropyl)sulfonyl)carbamoyl)-7,9-dimethyl-2-((4-morpholinoisoquinolin-1-yl)oxy)-5,16-dioxo-1,2,3,5,6,7,8,9,10,11,13a,14,14a,15,16,16a-hexadecahydrocyclopropa[e]pyrrolo[1,2-a][1,4]diazacyclopentadecin-6-yl)carbamate], the EC50 [1, 3] was 1.01 to 5 nM and the EC50 [2, 4] was 0.51 to 1 nM.

For `COc1ccc2c(O[C@@H]3C[C@H]4C(=O)N[C@]5(C(=O)NS(=O)(=O)C6(CF)CC6)C[C@H]5/C=C\CC[C@H](C)C[C@@H](C)[C@H](NC(=O)OC(C)(C)C(F)(F)F)C(=O)N4C3)nc(Cl)cc2c1` [Compound 1164, 1,1,1-trifluoro-2-methylpropan-2-yl((2R,6S,7R,9S,13aS,14aR,16aS,Z)-2-((3-chloro-6-methoxyisoquinolin-1-yl)oxy)-14a-(((1-(fluoromethyl)cyclopropyl)sulfonyl)carbamoyl)-7,9-dimethyl-5,16-dioxo-1,2,3,5,6,7,8,9,10,11,13a,14,14a,15,16,16a-hexadecahydrocyclopropa[e]pyrrolo[1,2-a][1,4]diazacyclopentadecin-6-yl)carbamate], the EC50 [1, 5] was 4.82 to 103 nM and the EC50 [2, 6] was 4.82 to 103 nM.

`COc1ccc2c(O[C@@H]3C[C@H]4C(=O)N[C@]5(C(=O)NS(=O)(=O)C6(C)CC6)C[C@H]5/C=C\CC[C@@H](C)C[C@@H](C)[C@H](NC(=O)OC(C)(C)C(F)(F)F)C(=O)N4C3)nc(-c3ccc4c(c3)OCCO4)cc2c1` [Compound 5235, 1,1,1-trifluoro-2-methylpropan-2-yl((2R,6S,7R,9R,13aS,14aR,16aS,Z)-2-((3-(2,3-dihydrobenzo[b][1,4]dioxin-6-yl)-6-methoxyisoquinolin-1-yl)oxy)-7,9-dimethyl-14a-(((1-methylcyclopropyl)sulfonyl)carbamoyl)-5,16-dioxo-1,2,3,5,6,7,8,9,10,11,13a,14,14a,15,16,16a-hexadecahydrocyclopropa[e]pyrrolo[1,2-a][1,4]diazacyclopentadecin-6-yl)carbamate] gave an EC50 [1, 3] of under 5.46 nM and an EC50 [2, 4] of under 5.46 nM.

Compound `CC(C)Oc1cc2ccccc2c(O[C@@H]2C[C@H]3C(=O)N[C@]4(C(=O)NS(=O)(=O)C5(C)CC5)C[C@H]4/C=C\CC[C@H](C)C[C@@H](C)[C@H](NC(=O)OC(C)(C)C(C)(F)F)C(=O)N3C2)n1` [Compound 6105, 3,3-difluoro-2-methylbutan-2-yl((2R,6S,7R,9S,13aS,14aR,16aS,Z)-2-((3-isopropoxyisoquinolin-1-yl)oxy)-7,9-dimethyl-14a-(((1-methylcyclopropyl)sulfonyl)carbamoyl)-5,16-dioxo-1,2,3,5,6,7,8,9,10,11,13a,14,14a,15,16,16a-hexadecahydrocyclopropa[e]pyrrolo[1,2-a][1,4]diazacyclopentadecin-6-yl)carbamate] has an EC50 [1, 3] of 5.01 to 35 nM and an EC50 [2, 4] of 1.01 to 5 nM.

`COc1ccc2c(O[C@@H]3C[C@H]4C(=O)N[C@]5(C(=O)NS(=O)(=O)C6(C)CC6)C[C@H]5/C=C\CC[C@@H](C)C[C@@H](C)[C@H](NC(=O)OC5(C(F)(F)F)COC5)C(=O)N4C3)nc(OC)cc2c1` [Compound 1141, 3-(trifluoromethyl)oxetan-3-yl ((2R,6S,7R,9R,13aS,14aR,16aS,Z)-2-((3,6-dimethoxyisoquinolin-1-yl)oxy)-7,9-dimethyl-14a-(((1-methylcyclopropyl)sulfonyl)carbamoyl)-5,16-dioxo-1,2,3,5,6,7,8,9,10,11,13a,14,14a,15,16,16a-hexadecahydrocyclopropa[e]pyrrolo[1,2-a][1,4]diazacyclopentadecin-6-yl)carbamate] was tested, and the EC50 [1, 5] was under 5.46 nM and the EC50 [2, 6] was under 5.46 nM.

`CC[C@@H]1C[C@H](C)CC/C=C\[C@@H]2C[C@@]2(C(=O)NS(=O)(=O)C2(C)CC2)NC(=O)[C@@H]2C[C@@H](Oc3cnnc4cc(OC)ccc34)CN2C(=O)[C@H]1NC(=O)OC(C)(C)C` [Compound 4321, tert-butyl ((2R,6S,7R,9R,13aS,14aR,16aS,Z)-7-ethyl-2-((7-methoxycinnolin-4-yl)oxy)-9-methyl-14a-(((1-methylcyclopropyl)sulfonyl)carbamoyl)-5,16-dioxo-1,2,3,5,6,7,8,9,10,11,13a,14,14a,15,16,16a-hexadecahydrocyclopropa[e]pyrrolo[1,2-a][1,4]diazacyclopentadecin-6-yl)carbamate] gave an EC50 [1, 3] of 5.01 to 35 nM and an EC50 [2, 4] of 5.01 to 35 nM.

`COc1cc2ccnc(O[C@@H]3C[C@H]4C(=O)N[C@]5(C(=O)NS(=O)(=O)C6(CF)CC6)C[C@H]5/C=C\CC[C@@H](C)C[C@@H](C)[C@H](NC(=O)OC(C)(C)C(F)(F)F)C(=O)N4C3)c2cc1F` [Compound 1185] showed an EC50 ([1]; GETYPE1A, HCV genotype 1a replicon luciferase, read-out: LE_1a (EC50)) of 2.91 nM, an EC50 ([1]; GETYPE1A, HCV genotype 1a replicon luciferase, read-out: LE_1a (EC50, range)) of 1.01 to 5 nM and an EC50 ([2]; GETYPE1B, HCV genotype 1b replicon luciferase, read-out: LE_1b (EC50)) of 0.83 nM. For the same compound, the EC50 ([2]; GETYPE1B, HCV genotype 1b replicon luciferase, read-out: LE_1b (EC50, range)) was 0.51 to 1 nM.

With `COc1cccc2c(O[C@@H]3C[C@H]4C(=O)N[C@]5(C(=O)NS(=O)(=O)C6(C)CC6)C[C@H]5/C=C\CC[C@@H](C)C[C@@H](C)[C@H](NC(=O)OC(C)(C)C)C(=O)N4C3)nccc12` [Compound 3036, tert-butyl ((2R,6S,7R,9R,13aS,14aR,16aS,Z)-2-((5-methoxyisoquinolin-1-yl)oxy)-7,9-dimethyl-14a-(((1-methylcyclopropyl)sulfonyl)carbamoyl)-5,16-dioxo-1,2,3,5,6,7,8,9,10,11,13a,14,14a,15,16,16a-hexadecahydrocyclopropa[e]pyrrolo[1,2-a][1,4]diazacyclopentadecin-6-yl)carbamate] the EC50 [1, 5] was under 5.46 nM and the EC50 [2, 6] was under 5.46 nM.

Work on `COc1ccc2c(O[C@@H]3C[C@H]4C(=O)N[C@]5(C(=O)NS(=O)(=O)C6CC6)C[C@H]5/C=C\CC[C@@H](C)C[C@@H](C)[C@H](NC(=O)OC(C)(C)C)C(=O)N4C3)nc(-c3ccc(OC(C)C)cc3)cc2c1` [Compound 4026, tert-butyl (2R,6S,7R,9R,13aS,14aR,16aS,Z)-14a-(cyclopropylsulfonylcarbamoyl)-2-(3-(4-isopropoxyphenyl)-6-methoxyisoquinolin-1-yloxy)-7,9-dimethyl-5,16-dioxo-1,2,3,5,6,7,8,9,10,11,13a,14,14a,15,16,16a-hexadecahydrocyclopropa[e]pyrrolo[1,2-a][1,4]diazacyclopentadecin-6-ylcarbamate] yielded an EC50 [1, 3] of under 5.46 nM and an EC50 [2, 4] of under 5.46 nM.

Work on `C[C@@H]1CC/C=C\[C@@H]2C[C@@]2(C(=O)NS(=O)(=O)C2CC2)NC(=O)[C@@H]2C[C@@H](Oc3nccc4c5c(ccc34)OCCO5)CN2C(=O)[C@@H](NC(=O)O[C@@H]2C[C@@H]3C[C@@H]3C2)[C@H](C)C1` [Compound 5264, (1R,3r,5S)-bicyclo[3.1.0]hexan-3-yl((2R,6S,7R,9R,13aS,14aR,16aS,Z)-14a-((cyclopropylsulfonyl)carbamoyl)-2-((2,3-dihydro-[1,4]dioxino[2,3-f]isoquinolin-7-yl)oxy)-7,9-dimethyl-5,16-dioxo-1,2,3,5,6,7,8,9,10,11,13a,14,14a,15,16,16a-hexadecahydrocyclopropa[e]pyrrolo[1,2-a][1,4]diazacyclopentadecin-6-yl)carbamate] yielded an EC50 [1, 3] of under 5.46 nM and an EC50 [2, 4] of under 5.46 nM.

Work on `COc1ccc2c(O[C@@H]3C[C@H]4C(=O)N[C@]5(C(=O)NS(=O)(=O)C6(CF)CC6)C[C@H]5/C=C\CC[C@H](C)C[C@@H](C)[C@H](NC(=O)OC(C)(C)C)C(=O)N4C3)nc(N(C)C)nc2c1` [Compound 3005, tert-butyl ((2R,6S,7R,9S,13aS,14aR,16aS,Z)-2-((2-(dimethylamino)-7-methoxyquinazolin-4-yl)oxy)-14a-(((1-(fluoromethyl)cyclopropyl)sulfonyl)carbamoyl)-7,9-dimethyl-5,16-dioxo-1,2,3,5,6,7,8,9,10,11,13a,14,14a,15,16,16a-hexadecahydrocyclopropa[e]pyrrolo[1,2-a][1,4]diazacyclopentadecin-6-yl)carbamate] yielded an EC50 [1, 5] of 4.82 to 103 nM and an EC50 [2, 6] of 4.82 to 103 nM.

For `CCOc1cc2cc(OC)ccc2c(O[C@@H]2C[C@H]3C(=O)N[C@]4(C(=O)NS(=O)(=O)C5(C)CC5)C[C@H]4/C=C\CC[C@@H](C)C[C@@H](C)[C@H](NC(=O)OC(C)(C)C(F)(F)F)C(=O)N3C2)n1` [Compound 3198, 1,1,1-trifluoro-2-methylpropan-2-yl((2R,6S,7R,9R,13aS,14aR,16aS,Z)-2-((3-ethoxy-6-methoxyisoquinolin-1-yl)oxy)-7,9-dimethyl-14a-(((1-methylcyclopropyl)sulfonyl)carbamoyl)-5,16-dioxo-1,2,3,5,6,7,8,9,10,11,13a,14,14a,15,16,16a-hexadecahydrocyclopropa[e]pyrrolo[1,2-a][1,4]diazacyclopentadecin-6-yl)carbamate], the EC50 [1, 3] was 0.51 to 1 nM and the EC50 [2, 4] was 1.01 to 5 nM.
